One experiment deals with T1, human ETA receptors (Homo sapiens, UniProt P25101).
T1 construct: endogenous in cells; host or cells: TE 671 cells (ATCC HTB 139), membrane preparation
T1 sequence (P25101 21-427): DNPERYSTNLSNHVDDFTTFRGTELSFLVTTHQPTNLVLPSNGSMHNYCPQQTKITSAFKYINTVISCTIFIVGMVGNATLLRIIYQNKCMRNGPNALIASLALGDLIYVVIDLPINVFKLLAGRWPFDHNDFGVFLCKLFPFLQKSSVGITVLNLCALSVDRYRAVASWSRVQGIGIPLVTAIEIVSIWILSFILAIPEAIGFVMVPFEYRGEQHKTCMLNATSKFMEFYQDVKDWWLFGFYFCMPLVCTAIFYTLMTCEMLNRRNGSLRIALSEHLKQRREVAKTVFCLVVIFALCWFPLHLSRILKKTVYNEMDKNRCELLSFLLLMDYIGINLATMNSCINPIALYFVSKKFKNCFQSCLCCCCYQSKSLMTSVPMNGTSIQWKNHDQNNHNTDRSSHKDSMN
Put plainly: Endothelin binding inhibition, Binding Test #1: competition with 125I-ET-1 for ETA receptors on TE 671 cell membranes.

The target of another experiment is T2, human ETB receptor (Homo sapiens, UniProt P24530).
T2 construct: expressed in transfected cells; host or cells: COS7 cells
T2 sequence (P24530 27-442): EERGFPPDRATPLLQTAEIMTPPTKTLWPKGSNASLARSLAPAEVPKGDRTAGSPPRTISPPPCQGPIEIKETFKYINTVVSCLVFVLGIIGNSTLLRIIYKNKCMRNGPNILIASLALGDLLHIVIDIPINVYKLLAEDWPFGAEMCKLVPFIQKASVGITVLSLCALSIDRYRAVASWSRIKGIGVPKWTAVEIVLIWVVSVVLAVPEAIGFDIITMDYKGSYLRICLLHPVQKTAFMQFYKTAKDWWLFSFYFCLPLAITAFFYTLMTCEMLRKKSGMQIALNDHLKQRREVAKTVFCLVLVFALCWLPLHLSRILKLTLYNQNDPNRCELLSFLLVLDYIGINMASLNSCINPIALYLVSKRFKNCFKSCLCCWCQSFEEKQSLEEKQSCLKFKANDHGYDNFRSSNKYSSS
Kind of experiment: Endothelin binding inhibition, Binding Test #2: competition with 125I-ET-1 for ETB receptors on transfected COS7 cell membranes. In short, it runs like this:
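Membranes from COS7 cells transfected with human ETB receptor, prepared in HEPES pH 7.4 with aprotinin, MnCl2/DNase treatment at 37° C for 30 min. Test compounds compete with 125I-labeled ET-1 for receptor binding; membrane used at 1 μg/50 μL binding buffer.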

Where [1] appears, read: incubation at 24° C. (values marked †).
Setting [2] is: incubation at 4° C. (values without †).

As usually defined, the IC50 is the point on the concentration scale where inhibition reaches its midpoint. A lower IC50 goes with higher potency.

Turning to `Cc1cc(C)c(OC(=O)c2sccc2S(=O)(=O)Nc2onc(C)c2Br)c(C)c1` [N-(4-bromo-3-methyl-5-isoxazolyl)-2-[(2,4,6-trimethylphenoxy)carbonyl]thiophene-3-sulfonamide], the half-inhibitory concentration (IC50) at human ETA receptors (setting [1]) was 479 nM; on human ETB receptor (setting [1]), 24500 nM.

With `Cc1noc(NS(=O)(=O)c2sccc2CC=Cc2cc3c(cc2CO)OCO3)c1Br` [N-(4-bromo-3-methyl-5-isoxazolyl)-3-[2-(hydroxymethyl)-4,5-(methylenedioxy)cinnamyl]thiophene-2-sulfonamide], the half-maximal inhibitory concentration (IC50) on human ETA receptors (setting [1]) came to 79.5 nM; at human ETB receptor (setting [1]) it was 3240 nM.

Turning to `COc1cccc(OC(=O)c2sccc2S(=O)(=O)Nc2onc(C)c2Br)c1` [N-(4-bromo-3-methyl-5-isoxazolyl)-2-[(3-methoxylphenoxy)carbonyl]thiophene-3-sulfonamide], the IC50 came out at 790 nM at human ETA receptors (setting [1]) and 90000 nM at human ETB receptor (setting [1]).

As for `COc1ccc(OC(=O)c2sccc2S(=O)(=O)Nc2onc(C)c2Br)cc1` [N-(4-bromo-3-methyl-5-isoxazolyl)-2-[(4-methoxylphenoxy)carbonyl]thiophene-3-sulfonamide], the IC50 at human ETA receptors (setting [1]) is 1730 nM; at human ETB receptor (setting [1]), 111000 nM.

For the compound `Cc1cc(C)c(C=CCc2ccsc2S(=O)(=O)Nc2onc(C)c2Br)c(C)c1` [N-(4-bromo-3-methyl-5-isoxazolyl)-3-(2,4,6-trimethylcinnamyl)thiophene-2-sulfonamide], the IC50 at human ETA receptors (setting [1]) worked out at 49 nM; on human ETB receptor (setting [1]), 1860 nM.

Turning to `Cc1cc(C)c(C(=O)O)c(C)c1NC(=O)c1sccc1S(=O)(=O)Nc1onc(C)c1Cl` [N-(4-chloro-3-methyl-5-isoxazolyl)-2-(3-carboxyl-2,4,6-trimethylphenylaminocarbonyl)thiophene-3-sulfonamide], the 50% inhibitory concentration (IC50) stood at 11.9 nM on human ETA receptors (setting [1]) and 22400 nM on human ETB receptor (setting [1]).

Turning to `Cc1cccc(-c2ccsc2S(=O)(=O)Nc2onc(C)c2Br)c1` [N-(4-bromo-3-methyl-5-isoxazolyl)-3-(3-tolyl)thiophene-2-sulfonamide], the IC50 at human ETA receptors (setting [1]) is 832 nM; on human ETB receptor (setting [1]), 21200 nM.

For `CC(=O)OCc1c(C)cc(C)c(NC(=O)c2sccc2S(=O)(=O)Nc2onc(C)c2C)c1C` [N-(3,4-dimethyl-5-isoxazolyl)-2-(3-acetoxymethyl-2,4,6-trimethylphenylaminocarbonyl)thiophene-3-sulfonamide], the IC50 came to 0.97 nM on human ETA receptors (setting [1]) and 156000 nM at human ETB receptor (setting [1]).

For `Cc1noc(NS(=O)(=O)c2ccsc2C(=O)Nc2ccc(O)nn2)c1Br` [N-(4-bromo-3-methyl-5-isoxazolyl)-2-[(3-hydroxyl-6-pyridazinyl)aminocarbonyl]thiophene-3-sulfonamide], the figures for the 50% inhibitory concentration (IC50) on human ETA receptors (setting [1]) and on human ETB receptor (setting [1]) were 66 nM and 81300 nM, respectively.

Consider `Cc1noc(NS(=O)(=O)c2ccsc2C(=O)Nc2cc3c(cc2CC(=O)N(C)C)OCO3)c1Cl` [N-(4-chloro-3-methyl-5-isoxazolyl)-2-{2-[(dimethylamino)carbonylmethyl]-4,5-(methylenedioxy)phenylaminocarbonyl}thiophene-3-sulfonamide], for which the IC50 on human ETA receptors (setting [1]) was 9 nM; on human ETB receptor (setting [1]), 13800 nM.

`Cc1noc(NS(=O)(=O)c2ccsc2C(=O)OCc2ccc3c(c2)OCO3)c1Cl` [N-(4-chloro-3-methyl-5-isoxazolyl)-2-[3,4-(methylenedioxy)benzyloxycarbonyl]thiophene-3-sulfonamide]: the values for the IC50 on human ETA receptors (setting [1]) and on human ETB receptor (setting [1]) were 420 nM and 12000 nM, respectively.

`Cc1cc2c(cc1NC(=O)c1sccc1S(=O)(=O)Nc1onc(C)c1Cl)OCO2` [N-(4-chloro-3-methyl-5-isoxazolyl)-2-[2-methyl-4,5-(methylenedioxy)phenylaminocarbonyl]thiophene-3-sulfonamide]: the half-maximal inhibitory concentration (IC50) at human ETA receptors (setting [1]) is 3 nM; at human ETB receptor (setting [1]), 355000 nM.

As for `Cc1ccc(NC(=O)c2sccc2S(=O)(=O)Nc2onc(C)c2Cl)cc1` [N-(4-chloro-3-methyl-5-isoxazolyl)-2-[(4-tolyl)aminocarbonyl]thiophene-3-sulfonamide], the IC50 at human ETA receptors (setting [2]) was determined as 1.16 nM; at human ETA receptors (setting [1]), 10.5 nM; at human ETB receptor (setting [2]), 2930 nM; on human ETB receptor (setting [1]) it was 14000 nM.

Take `Cc1noc(NS(=O)(=O)c2ccsc2CC(c2ccc3c(c2)OCO3)N(C)C)c1Cl` (stereo not drawn) [N-(4-chloro-3-methyl-5-isoxazolyl)-2-[β-(dimethylamino)-3,4-(methylenedioxy)phenethy]thiophene-3-sulfonamide]: the values for the IC50 at human ETA receptors (setting [1]) and at human ETB receptor (setting [1]) were 20900 nM and around 100000 nM, respectively.

As to `Cc1noc(NS(=O)(=O)c2ccsc2C(=O)Nc2cc3c(cc2OCCO)OCO3)c1Cl` [N-(4-chloro-3-methyl-5-isoxazolyl)-2-[3,4-(methylenedioxy)-6-(2-hydroxyethoxy)phenylaminocarbonyl]thiophene-3-sulfonamide], the IC50 on human ETA receptors (setting [1]) is around 10 nM; on human ETB receptor (setting [1]), around 18000 nM.

Turning to `Cc1noc(NS(=O)(=O)c2ccsc2C(=O)Cc2cc3c(cc2C#N)OCO3)c1Cl` [N-(4-chloro-3-methyl-5-isoxazolyl)-2-[2-cyano-4,5-(methylenedioxy)phenylacetyl]thiophene-3-sulfonamide], the IC50 at human ETA receptors (setting [1]) is around 300 nM; on human ETB receptor (setting [1]), around 700 nM.

On to `Cc1noc(NS(=O)(=O)c2sccc2-c2ccc(CCC(C)C)cc2)c1Br` [N-(4-bromo-3-methyl-5-isoxazolyl)-3-(4-iso-pentylphenyl)thiophene-2-sulfonamide], for which the IC50 at human ETA receptors (setting [1]) stood at 155 nM; at human ETB receptor (setting [1]), 3310 nM.

In the case of `Cc1noc(NS(=O)(=O)c2ccsc2C(=O)C(O)c2ccc3c(c2)OCO3)c1Cl` (stereo not drawn) [N-(4-chloro-3-methyl-5-isoxazolyl)-2-{α-hydroxy-[3,4-(methylenedioxy)phenyl]acetyl}thiophene-3-sulfonamide], the concentration for half-maximal inhibition (IC50) on human ETA receptors (setting [1]) stood at 2500 nM; on human ETB receptor (setting [1]), 30000 nM.

Turning to `CCCCc1ccc(-c2ccsc2S(=O)(=O)Nc2onc(C)c2Br)cc1` [N-(4-bromo-3-methyl-5-isoxazolyl)-3-(4-butylphenyl)thiophene-2-sulfonamide], the half-maximal inhibitory concentration (IC50) at human ETA receptors (setting [2]) amounted to 160 nM; on human ETB receptor (setting [1]) it was 6110 nM.

“N-(4-chloro-3-methyl-5-isoxazolyl)-2-[2-methyl-4,5-(methylenedioxy)phenylhydroxyimino]thiophene-3-sulfonamide”: the IC50 came to 794 nM at human ETA receptors (setting [1]) and 6490 nM at human ETB receptor (setting [1]).

For `Cc1noc(NS(=O)(=O)c2sccc2Cc2ccc3c(c2)OCO3)c1Br` [N-(4-bromo-3-methyl-5-isoxazolyl)-3-[(3,4-methylenedioxy)benzyl]thiophene-2-sulfonamide], the concentration for half-maximal inhibition (IC50) on human ETA receptors (setting [1]) is 8100 nM; on human ETB receptor (setting [1]), 3200 nM.

For `Cc1ccc(OCc2ccsc2S(=O)(=O)Nc2onc(C)c2Br)c(C)c1` [N-(4-bromo-3-methyl-5-isoxazolyl)-3-[(2,4-dimethylphenoxy)methyl]thiophene-2-sulfonamide], the IC50 on human ETA receptors (setting [1]) turned out to be 346 nM; on human ETB receptor (setting [1]) it was 7450 nM.

For the compound `Cc1noc(NS(=O)(=O)c2ccsc2C(=O)Nc2ccccc2O)c1Br` [N-(4-bromo-3-methyl-5-isoxazolyl)-2-[(2-hydroxyphenyl)aminocarbonyl]thiophene-3-sulfonamide], the values for the IC50 at human ETA receptors (setting [1]) and at human ETB receptor (setting [1]) were 13 nM and 38000 nM, respectively.

In the case of `COc1ccc(Cc2sc3ccccc3c2S(=O)(=O)Nc2onc(C)c2Br)cc1OC` [N-(4-bromo-3-methyl-5-isoxazolyl)-2-(3,4-dimethoxybenzyl)benzo[b]thiophene-3-sulfonamide], the IC50 on human ETA receptors (setting [1]) was 21 ± 17 nM; on human ETB receptor (setting [1]), 2940 ± 1320 nM.

On to `Cc1noc(NS(=O)(=O)c2ccsc2C(=O)NC(=O)c2ccc3c(c2)OCO3)c1Br` [N-(4-bromo-3-methyl-5-isoxazolyl)-2-[(3,4-methylenedioxy)benzoyl]aminocarbonyl]thiophene-3-sulfonamide], for which the IC50 was 89 nM at human ETA receptors (setting [1]) and 37000 nM on human ETB receptor (setting [1]).

`Cc1ccc(C)c(CC(=O)c2sccc2S(=O)(=O)Nc2onc(C)c2Cl)c1` [N-(4-chloro-3-methyl-5-isoxazolyl)-2-(2,5-dimethylphenylacetyl)thiophene-3-sulfonamide]: the 50% inhibitory concentration (IC50) on human ETA receptors (setting [1]) was 7 nM; at human ETB receptor (setting [1]), 18000 nM.

For `CCCc1ccc(-c2ccsc2S(=O)(=O)Nc2onc(C)c2Br)cc1` [N-(4-bromo-3-methyl-5-isoxazolyl)-3-(4-propylphenyl)thiophene-2-sulfonamide], the half-maximal inhibitory concentration (IC50) on human ETA receptors (setting [2]) was found to be 87.3 nM; at human ETB receptor (setting [1]), 8480 nM.

Turning to `Cc1noc(NS(=O)(=O)c2ccsc2C(=O)Nc2c(CC#N)cc3c(c2CC#N)OCO3)c1Cl` [N-(4-chloro-3-methyl-5-isoxazolyl)-2-[2-cyanomethyl-4,5-(methylenedioxy)-6-cyanomethyl]phenylaminocarbonylthiophene-3-sulfonamide], the figures for the half-inhibitory concentration (IC50) at human ETA receptors (setting [1]) and at human ETB receptor (setting [1]) were 3.8 nM and 25000 nM, respectively.

For the origin of these results see US6632829B2, “Sulfonamides and derivatives thereof that modulate the activity of endothelin” (Texas Biotechnology Corp., priority 1996, dated 2003).
